In brackets after ≈: the same amount, converted by molar mass. Read-outs that look alike come from different tables or passages of the source.
Test: Solubility test in water and FaSSIF
Type: physicochemical
Details: 37° C., up to 24 hours
[1] = thermodynamic from solid, FaSSIF (pH 6.5), read-out: Solubility
[2] = thermodynamic from solid, Water, read-out: Solubility

| SMILES | Solubility (FaSSIF (pH 6.5)) [µg/mL] | Solubility (Water) [µg/mL] | Solubility [1] [µg/mL] | Solubility [2] [µg/mL] |
| --- | --- | --- | --- | --- |
| CC(C)(O)C1CCC(C)(C2C(O)CC3(C)C4CC(OC(=O)C5CCNCC5)C5C(C)(C)C(F)(F)CCC56CC46CCC23C)O1.Cl [Compound 2-2, 4-((((2aR,3R,4S,5aS,5bS,7S,7aR,11aR,12aS)-9,9-difluoro-4-hydroxy-3-((2S,5S)-5-(2-hydroxypropan-2-yl)-2-methyltetrahydrofuran-2-yl)-2a,5a,8,8-tetramethyltetradecahydro-1H,12H-cyclopenta[a]cyclopropa[e]phenanthren-7-yl)oxy)carbonyl)piperidin-1-ium Chloride] | 1660 | 880 | – | – |
| CC(C)(O)[C@@H]1CC[C@@](C)([C@H]2[C@@H](O)C[C@@]3(C)[C@@H]4C[C@H](OC(=O)COCCOCCOCCN)[C@H]5C(C)(C)C(F)(F)CC[C@@]56C[C@@]46CC[C@]23C)O1.O=C(O)C(F)(F)F [Compound 2-8, 2-(2-(2-(2-(((2aR,3R,4S,5aS,5bS,7S,7aR,11aR,12aS)-9,9-difluoro-4-hydroxy-3-((2S,5S)-5-(2-hydroxypropan-2-yl)-2-methyltetrahydrofuran-2-yl)-2a,5a,8,8-tetramethyltetradecahydro-1H,12H-cyclopenta[a]cyclopropa[e]phenanthren-7-yl)oxy)-2-oxoethoxy)ethoxy)ethoxy)ethan-1-aminium Trifluoroacetate] | 4020 | 2050 | – | – |
| CC(C)(O)C1CCC(C)(C2C(O)CC3(C)C4CC(OC(=O)CNCCNCCN)C5C(C)(C)C(F)(F)CCC56CC46CCC23C)O1.O=[N+]([O-])O [Compound 2-9, 2-((2-((2-(((2aR,3R,4S,5aS,5bS,7S,7aR,11aR,12aS)-9,9-difluoro-4-hydroxy-3-((2S,5S)-5-(2-hydroxypropan-2-yl)-2-methyltetrahydrofuran-2-yl)-2a,5a,8,8-tetramethyltetradecahydro-1H,12H-cyclopenta[a]cyclopropa[e]phenanthren-7-yl)oxy)-2-oxoethyl)amino)ethyl)amino)ethan-1-aminium Nitrate] | 4520 | 2110 | – | – |
| Br.CC(C)(O)C1CCC(C)(C2C(O)CC3(C)C4CC(OC(=O)COCCOCCOCCOCCOCCN)C5C(C)(C)C(F)(F)CCC56CC46CCC23C)O1 [Compound 2-10, 17-(((2aR,3R,4S,5aS,5bS,7S,7aR,11aR,12aS)-9,9-difluoro-4-hydroxy-3-((2S,5S)-5-(2-hydroxypropan-2-yl)-2-methyltetrahydrofuran-2-yl)-2a,5a,8,8-tetramethyltetradecahydro-1H,12H-cyclopenta[a]cyclopropa[e]phenanthren-7-yl)oxy)-17-oxo-3,6,9,12,15-pentaoxaheptadecan-1-aminium Bromide] | 4390 | 2280 | – | – |
| CC(C)(O)[C@@H]1CC[C@@](C)([C@H]2[C@@H](O)C[C@@]3(C)[C@@H]4C[C@H](OC(=O)COCCO)[C@H]5C(C)(C)C(F)(F)CC[C@@]56C[C@@]46CC[C@]23C)O1 [Compound 2-11, (2aR,3R,4S,5aS,5bS,7S,7aR,11aR,12aS)-9,9-difluoro-4-hydroxy-3-((2S,5S)-5-(2-hydroxypropan-2-yl)-2-methyltetrahydrofuran-2-yl)-2a,5a,8,8-tetramethyltetradecahydro-1H,12H-cyclopenta[a]cyclopropa[e]phenanthren-7-yl-2-(2-hydroxyethoxy)acetate] | – | – | 1050 (≈ 1710 µM) | 550 (≈ 898 µM) |
| CC(C)(O)[C@@H]1CC[C@@](C)([C@H]2[C@@H](O)C[C@@]3(C)[C@@H]4C[C@H](OC(=O)COCCOCCO)[C@H]5C(C)(C)C(F)(F)CC[C@@]56C[C@@]46CC[C@]23C)O1 [Compound 2-12, (2aR,3R,4S,5aS,5bS,7S,7aR,11aR,12aS)-9,9-difluoro-4-hydroxy-3-((2S,5S)-5-(2-hydroxypropan-2-yl)-2-methyltetrahydrofuran-2-yl)-2a,5a,8,8-tetramethyltetradecahydro-1H,12H-cyclopenta[a]cyclopropa[e]phenanthren-7-yl-2-(2-(2-hydroxyethoxy)ethoxy) Acetate] | – | – | 1110 | 680 |
| CC(C)(O)[C@@H]1CC[C@@](C)([C@H]2[C@@H](O)C[C@@]3(C)[C@@H]4C[C@H](OC(=O)COCCOCCOCCO)[C@H]5C(C)(C)C(F)(F)CC[C@@]56C[C@@]46CC[C@]23C)O1 [Compound 2-13, (2aR,3R,4S,5aS,5bS,7S,7aR,11aR,12aS)-9,9-difluoro-4-hydroxy-3-((2S,5S)-5-(2-hydroxypropan-2-yl)-2-methyltetrahydrofuran-2-yl)-2a,5a,8,8-tetramethyltetradecahydro-1H,12H-cyclopenta[a]cyclopropa[e]phenanthren-7-yl-2-(2-(2-(2-hydroxyethoxy)ethoxy)ethoxy)acetate] | – | – | 1150 (≈ 1640 µM) | 850 (≈ 1210 µM) |
| CC(C)(O)[C@@H]1CC[C@@](C)([C@H]2[C@@H](O)C[C@@]3(C)[C@@H]4C[C@H](OC(=O)COCCOCCOCCOCCOCCO)[C@H]5C(C)(C)C(F)(F)CC[C@@]56C[C@@]46CC[C@]23C)O1 [Compound 2-14, (2aR,3R,4S,5aS,5bS,7S,7aR,11aR,12aS)-9,9-difluoro-4-hydroxy-3-((2S,5S)-5-(2-hydroxypropan-2-yl)-2-methyltetrahydrofuran-2-yl)-2a,5a,8,8-tetramethyltetradecahydro-1H,12H-cyclopenta[a]cyclopropa[e]phenanthren-7-yl-17-hydroxy-3,6,9,12,15-pentaoxaheptadecanoate] | – | – | 2310 (≈ 2930 µM) | 1230 (≈ 1560 µM) |
| CC(C)C[C@H](N)C(=O)O[C@H]1C[C@@H]2[C@]3(CC[C@]4(C)[C@@H]([C@]5(C)CC[C@@H](C(C)(C)O)O5)[C@@H](O)C[C@@]24C)C[C@@]32CCC(F)(F)C(C)(C)[C@H]12.Cl [Compound 2-18, (S)-1-(((2aR,3R,4S,5aS,5bS,7S,7aR,11aR,12aS)-9,9-difluoro-4-hydroxy-3-((2S,5S)-5-(2-hydroxypropan-2-yl)-2-methyltetrahydrofuran-2-yl)-2a,5a,8,8-tetramethyltetradecahydro-1H,12H-cyclopenta[a]cyclopropa[e]phenanthren-7-yl)oxy)-4-methyl-1-oxopentan-2-aminium Chloride] | 1850 | 600 | – | – |
| Br.CC(C)(O)[C@@H]1CC[C@@](C)([C@H]2[C@@H](O)C[C@@]3(C)[C@@H]4C[C@H](OC(=O)[C@@H](N)CC(N)=O)[C@H]5C(C)(C)C(F)(F)CC[C@@]56C[C@@]46CC[C@]23C)O1 [Compound 2-21, (S)-4-amino-1-(((2aR,3R,4S,5aS,5bS,7S,7aR,11aR,12aS)-9,9-difluoro-4-hydroxy-3-((2S,5S)-5-(2-hydroxypropan-2-yl)-2-methyltetrahydrofuran-2-yl)-2a,5a,8,8-tetramethyltetradecahydro-1H,12H-cyclopenta[a]cyclopropa[e]phenanthren-7-yl)oxy)-1,4-dioxobutan-2-aminium Bromide] | 3500 | 900 | – | – |
| CC(C)(O)[C@@H]1CC[C@@](C)([C@H]2[C@@H](O)C[C@@]3(C)[C@@H]4C[C@H](OC(=O)[C@@H](N)Cc5c[nH]cn5)[C@H]5C(C)(C)C(F)(F)CC[C@@]56C[C@@]46CC[C@]23C)O1.O=S(=O)(O)O [Compound 2-22, (2aR,3R,4S,5aS,5bS,7S,7aR,11aR,12aS)-9,9-difluoro-4-hydroxy-3-((2S,5S)-5-(2-hydroxypropan-2-yl)-2-methyltetrahydrofuran-2-yl)-2a,5a,8,8-tetramethyltetradecahydro-1H,12H-cyclopenta[a]cyclopropa[e]phenanthren-7-yl-L-histidinate Sulfate] | 1250 | 700 | – | – |
| CC(C)(O)[C@@H]1CC[C@@](C)([C@H]2[C@@H](O)C[C@@]3(C)[C@@H]4C[C@H](OC(=O)[C@@H](N)CCCNC(=N)N)[C@H]5C(C)(C)C(F)(F)CC[C@@]56C[C@@]46CC[C@]23C)O1.Cl.Cl [Compound 2-23, 1-((S)-4-ammonio-5-(((2aR,3R,4S,5aS,5bS,7S,7aR,11aR,12aS)-9,9-difluoro-4-hydroxy-3-((2S,5S)-5-(2-hydroxypropan-2-yl)-2-methyltetrahydrofuran-2-yl)-2a,5a,8,8-tetramethyltetradecahydro-1H,12H-cyclopenta[a]cyclopropa[e]phenanthren-7-yl)oxy)-5-oxopentyl)guanidinium Chloride] | 6600 | 2300 | – | – |
| CC(C)(O)[C@@H]1CC[C@@](C)([C@H]2[C@@H](O)C[C@@]3(C)[C@@H]4C[C@H](OC(=O)[C@@H](N)CC(=O)O)[C@H]5C(C)(C)C(F)(F)CC[C@@]56C[C@@]46CC[C@]23C)O1 [Compound 2-24, (S)-3-carboxy-1-(((2aR,3R,4S,5aS,5bS,7S,7aR,11aR,12aS)-9,9-difluoro-4-hydroxy-3-((2S,5S)-5-(2-hydroxypropan-2-yl)-2-methyltetrahydrofuran-2-yl)-2a,5a,8,8-tetramethyltetradecahydro-1H,12H-cyclopenta[a]cyclopropa[e]phenanthren-7-yl)oxy)-1-oxopropan-2-aminium 2,2,2-trifluoroacetate] | – | – | 5450 (≈ 8710 µM) | 1500 (≈ 2400 µM) |
| CC(C)(O)[C@@H]1CC[C@@](C)([C@H]2[C@@H](O)C[C@@]3(C)[C@@H]4C[C@H](OC(=O)[C@@H](N)CS)[C@H]5C(C)(C)C(F)(F)CC[C@@]56C[C@@]46CC[C@]23C)O1.Cl [Compound 2-25, (R)-1-(((2aR,3R,4S,5aS,5bS,7S,7aR,11aR,12aS)-9,9-difluoro-4-hydroxy-3-((2S,5S)-5-(2-hydroxypropan-2-yl)-2-methyltetrahydrofuran-2-yl)-2a,5a,8,8-tetramethyltetradecahydro-1H,12H-cyclopenta[a]cyclopropa[e]phenanthren-7-yl)oxy)-3-mercapto-1-oxopropan-2-aminium Chloride] | 3350 | 1020 | – | – |

— patent US20220177511A1, “SERIES OF HALOGENATED TETRACYCLIC TRITERPENE DERIVATIVES AND THEIR PREPARATION AND APPLICATION” (SHANGHAI KING-X BIOTECH CO., LTD, priority 2019, published 2022)
